Test results reported in US8933105B2, “Pyrrole compounds” (Takeda Pharmaceutical Company Limited, priority 2007, dated 2015).

What was measured:
Caspase-3/7 = Caspase-3/7 activity test (Caspase-Glo 3/7 Assay); format: cell-based, Human; conditions: HepG2, 30 μM, culture for one day, relative to maximum with Staurosporine (100%) and no test reagent (0%)
Protocol: (§1) Human liver cancer-derived cell line HepG2 (ATCC No. HB-8065) was passaged using Dulbecco's Modified Eagle medium (DMEM; Invitrogen) containing 10% fetal bovine serum (FBS; TRACE SCIENTIFIC LTD.), 1 mmol/L sodium pyruvate (Invitrogen), 2 mmol/L L-glutamine (Invitrogen), 50 IU/mL penicillin (Invitrogen) and 50 μg/mL streptomycin (Invitrogen) at 5% CO2, 37° C. The test reagent was prepared with DMSO to 10 mM, and further diluted with DMEM medium containing 0.5% FBS, 1 mmol/L sodium pyruvate, 2 mmol/L L-glutamine, 50 IU/mL penicillin and 50 μg/mL streptomycin to a final concentration of DMSO of 0.1%. HepG2 (2×10^4 cells/well) was cultured on a 96 well white plate (Costar) with the test reagent at 5% CO2, 37° C. After culture for one day, the intracellular ATP content was measured using ATPLite™ (PerkinElmer Life Sciences). The results are shown in Table 26 (n≧3, average value±SD) as a relative value (%) to control (without addition of drug) at 30 μM.
Caspase-3/7 Activity Test
The Caspase-3/7 activity in the cells cultured for one day by a method similar to that in Experimental Example 2 was measured using Caspase-Glo 3/7 Assay (Promega). The results are shown in Table 26 (n≧3, average value±SD) as relative activity (%) of each reagent based on the maximum value of Caspase-3/7 activity when exposed to Staurosporine (100%), and the activity without addition of a test reagent (0%).

[1] = target: T1, proton, potassium-adenosine triphosphatase (H+,K+-ATPase) (Sus scrofa, UniProt P19156); test: Proton potassium-adenosine triphosphatase (H+,K+-ATPase) inhibitory activity test; format: biochemical; conditions: swine gastric microsomal fraction, pH 6.5, 37° C.
T1 construct: a gastric mucous membrane microsomal fraction was prepared from the stomach of swine; from tissue; host or cells: swine stomach, gastric mucous membrane microsomal fraction
T1 sequence (P19156 2-1034 limits assumed): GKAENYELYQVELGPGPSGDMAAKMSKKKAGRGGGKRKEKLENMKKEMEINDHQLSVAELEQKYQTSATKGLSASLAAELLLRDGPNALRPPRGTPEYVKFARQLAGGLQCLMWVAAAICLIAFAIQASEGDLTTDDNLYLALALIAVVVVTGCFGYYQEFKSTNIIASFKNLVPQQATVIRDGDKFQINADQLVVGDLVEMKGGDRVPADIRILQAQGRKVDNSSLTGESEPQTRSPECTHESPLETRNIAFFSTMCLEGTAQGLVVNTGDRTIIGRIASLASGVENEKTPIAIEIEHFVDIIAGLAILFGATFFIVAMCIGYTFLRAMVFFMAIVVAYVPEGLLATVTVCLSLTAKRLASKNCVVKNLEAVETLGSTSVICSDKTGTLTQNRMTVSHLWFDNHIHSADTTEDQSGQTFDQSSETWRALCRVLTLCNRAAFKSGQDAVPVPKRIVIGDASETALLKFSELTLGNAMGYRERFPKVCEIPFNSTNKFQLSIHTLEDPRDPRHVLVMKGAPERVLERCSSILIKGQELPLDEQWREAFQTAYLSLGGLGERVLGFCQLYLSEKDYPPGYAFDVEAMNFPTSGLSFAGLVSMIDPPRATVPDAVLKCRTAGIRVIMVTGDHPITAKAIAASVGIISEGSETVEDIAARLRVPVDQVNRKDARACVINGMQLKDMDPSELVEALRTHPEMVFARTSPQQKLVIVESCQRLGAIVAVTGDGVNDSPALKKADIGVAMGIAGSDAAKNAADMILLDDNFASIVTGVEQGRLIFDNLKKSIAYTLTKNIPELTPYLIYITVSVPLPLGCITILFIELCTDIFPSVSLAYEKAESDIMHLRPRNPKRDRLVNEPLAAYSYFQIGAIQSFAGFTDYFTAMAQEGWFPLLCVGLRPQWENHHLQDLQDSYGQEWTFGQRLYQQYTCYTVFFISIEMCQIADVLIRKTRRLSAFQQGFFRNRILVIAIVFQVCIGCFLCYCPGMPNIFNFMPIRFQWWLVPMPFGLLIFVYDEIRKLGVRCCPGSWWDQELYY
T1 sequence (P18434 whole entry partner): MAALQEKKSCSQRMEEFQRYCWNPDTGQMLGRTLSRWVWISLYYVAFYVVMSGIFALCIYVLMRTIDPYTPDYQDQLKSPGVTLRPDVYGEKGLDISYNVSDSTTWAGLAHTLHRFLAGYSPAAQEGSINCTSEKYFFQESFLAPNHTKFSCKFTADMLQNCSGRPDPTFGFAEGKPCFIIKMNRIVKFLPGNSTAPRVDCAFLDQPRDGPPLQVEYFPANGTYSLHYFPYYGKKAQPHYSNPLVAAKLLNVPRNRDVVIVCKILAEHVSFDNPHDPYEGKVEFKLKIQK
Protocol: Proton Potassium-Adenosine Triphosphatase (H^+,K^+-ATPase) Inhibitory Activity Test
According to the method [Biochim. Biophys. Acta, 728, 31 (1983)] of Wallmark et al., a gastric mucous membrane microsomal fraction was prepared from the stomach of swine. First, the stomach was removed, washed with tap water, immersed in 3 mol/L brine, and the surface of the mucous membrane was wiped with a paper towel. The gastric mucous membrane was detached, chopped, and homogenized in a 0.25 mol/L saccharose solution (pH 6.8) containing 1 mmol/L EDTA and 10 mmol/L tris-hydrochloric acid using polytron (Kinematica). The obtained homogenate was centrifuged at 20,000×g for 30 min and the supernatant was centrifuged at 100,000×g for 90 min. The precipitate was suspended in 0.25 mol/L saccharose solution, superimposed on a 0.25 mol/L saccharose solution containing 7.5% Ficoll, and centrifuged at 100,000×g for 5 hr. The fraction containing the interface between the both layers was recovered, and centrifugally washed with 0.25 mol/L saccharose solution.
The obtained microsomal fraction was used as a proton, potassium-adenosine triphosphatase standard product.
To 40 μL of a 50 mmol/L HEPES-tris buffer (5 mmol/L magnesium chloride, 10 mmol/L potassium chloride, 10 μmol/L valinomycin, pH=6.5) containing 2.5 μg/mL (based on the protein concentration) of the enzyme standard product was added a test compound (5 μL) dissolved in a 10% aqueous dimethyl sulfoxide solution, and the mixture was incubated at 37° C. for 30 min. The enzyme reaction was started by adding 5 μL of a 2 mmol/L adenosine triphosphate tris salt solution (50 mmol/L HEPES-tris buffer (5 mmol/L magnesium chloride, pH 6.5)). The enzyme reaction was carried out at 37° C. for 20 min, and 15 μL of a malachite green solution (0.12% malachite green solution in sulfuric acid (2.5 mol/L), 7.5% ammonium molybdate and 11% Tween 20 were mixed at a ratio of 100:25:2) was added to quench the reaction. After allowing to stand at room temperature for 15 min, the resulting reaction product of inorganic phosphorus with malachite green was calorimetrically determined at a wavelength of 610 nm. In addition, the amount of the inorganic phosphoric acid in the reaction solution free of potassium chloride was measured in the same manner, which was subtracted from the inorganic phosphoric acid amount in the presence of potassium chloride to determine the proton, potassium-adenosine triphosphatase activity. The inhibitory rate (%) was determined from the activity value of the control and the activity values of various concentrations of the test compound, and the 50% inhibitory concentration (IC50) of the proton, potassium-adenosine triphosphatase was determined.

HepG2 = test: ATP content test (intracellular ATP content, ATPLite); format: cell-based, Human; conditions: HepG2, 30 μM, culture for one day, relative value to control (without addition of drug)
Protocol: as §1

| SMILES | Caspase-3/7 activity (%, 30 μM) (Caspase-3/7) [%] | IC50 [1] [nM] | ATP content (%, 30 μM) (HepG2) [%] |
| --- | --- | --- | --- |
| CNCc1cn(S(=O)(=O)c2cnn(C(F)F)c2)c(-c2cccnc2F)c1F.Cl [Example 81, 1-[1-{[1-(difluoromethyl)-1H-pyrazol-4-yl]sulfonyl}-4-fluoro-5-(2-fluoropyridin-3-yl)-1H-pyrrol-3-yl]-N-methylmethanamine hydrochloride] | −0.2 | 300 | 101.7 |
| CNCc1cn(S(=O)(=O)c2nccs2)c(-c2cccnc2F)c1F.Cl [Example 83, 1-[4-fluoro-5-(2-fluoropyridin-3-yl)-1-(1,3-thiazol-2-ylsulfonyl)-1H-pyrrol-3-yl]-N-methylmethanamine hydrochloride] | 0.3 | 180 | 96.6 |
| CNCc1cc(-c2cccnc2F)n(S(=O)(=O)c2ccccc2)c1.O=C(O)/C=C/C(=O)O [Example 1, 1-[5-(2-fluoropyridin-3-yl)-1-(phenylsulfonyl)-1H-pyrrol-3-yl]-N-methylmethanamine fumarate] | −1.3 | 26 | 88.1 |
| CNCc1cc(-c2cccnc2C#N)n(S(=O)(=O)c2ccccc2Cl)c1.Cl [Example 99, 3-{1-[(2-chlorophenyl)sulfonyl]-4-[(methylamino)methyl]-1H-pyrrol-2-yl}pyridine-2-carbonitrile hydrochloride] | 0.0 | 270 | 82.7 |
| CNCc1cn(S(=O)(=O)c2ccoc2)c(-c2cccnc2F)c1F.Cl [Example 50, 1-[4-fluoro-5-(2-fluoropyridin-3-yl)-1-(3-furylsulfonyl)-1H-pyrrol-3-yl]-N-methylmethanamine hydrochloride] | −0.3 | 60 | 99.8 |
| CNCc1cn(S(=O)(=O)c2ccoc2C)c(-c2cccnc2F)c1F.Cl [Example 72, 1-{4-fluoro-5-(2-fluoropyridin-3-yl)-1-[(2-methylfuran-3-yl)sulfonyl]-1H-pyrrol-3-yl}-N-methylmethanamine hydrochloride] | −0.5 | 93 | 88.1 |
| CNCc1cn(S(=O)(=O)c2cccnc2)c(-c2cccnc2F)c1F.O=C(O)/C=C/C(=O)O [Example 8, 1-[4-fluoro-5-(2-fluoropyridin-3-yl)-1-(pyridin-3-ylsulfonyl)-1H-pyrrol-3-yl]-N-methylmethanamine fumarate] | 0.2 | 90 | 103.9 |
